Experimental data from ChEMBL document CHEMBL1201862, “PubChem BioAssay data set” (2004).
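Following 48 hours of exposure in 96-well plates, responses at five concentrations were used to interpolate endpoints linearly. Here, GI50 denotes the concentration required for 50% inhibition of growth.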 Active and inactive are the calls of the source. Rule as the data show it: active = GI50 up to about 1.1 µM and inactive = higher.

Experiments:
Assay in all cases: growth of human tumour cells (NCI), 48 h
[1] = system: M14
[2] = system: Hs-578T
[3] = system: MCF7
[4] = system: HOP-92
[5] = system: NCI-H460
[6] = system: MDA-MB-435
[7] = system: U-251
[8] = system: K562
[9] = system: SR
[10] = system: RXF 393
[11] = system: HCT-15
[12] = system: CCRF-CEM
[13] = system: HT-29
[14] = system: LOX IMVI
[15] = system: SF-268
[16] = system: SF-539
[17] = system: 786-0
[18] = system: NCI-H23
[19] = system: SW-620
[20] = system: ACHN
[21] = system: T47D
[22] = system: EKVX
[23] = system: HOP-62
[24] = system: SF-295
[25] = system: TK-10
[26] = system: BT-549
[27] = system: Malme-3M
[28] = system: HCT-116
[29] = system: A549
[30] = system: OVCAR-3
[31] = system: MOLT-4
[32] = system: SNB-75
[33] = system: SK-MEL-2
[34] = system: UO-31
[35] = system: COLO 205
[36] = system: MDA-N
[37] = system: IGROV-1
[38] = system: OVCAR-8
[39] = system: NCI/ADR-RES
[40] = system: OVCAR-5
[41] = system: SK-MEL-28
[42] = system: NCI-H226
[43] = system: CAKI-1
[44] = system: SNB-19
[45] = system: DU-145
[46] = system: SN12C
[47] = system: SK-OV-3
[48] = system: HCC 2998
[49] = system: UACC-257
[50] = system: SK-MEL-5
[51] = system: NCI-H522
[52] = system: PC-3
[53] = system: RPMI-8226
[54] = system: KM12
[55] = system: OVCAR-4
[56] = system: MDA-MB-231
[57] = system: UACC-62
[58] = system: A498
[59] = system: HL-60

Measured: GI50

CC(=O)N(CC(=O)C(=O)NNc1ccoc1)c1ccc(Cl)cc1
50.5 µM: [11]
inactive: [1] > 100 µM | [2] > 100 µM | [3] 50.5 µM | [4] > 100 µM | [5] > 100 µM | [6] > 100 µM | [7] > 100 µM | [8] 91.4 µM | [9] 79.4 µM | [10] > 100 µM | [12] 31.9 µM | [13] > 100 µM | [14] > 100 µM | [15] > 100 µM | [16] > 100 µM | [17] 94 µM | [18] > 100 µM | [19] > 100 µM | [20] 37.8 µM | [21] > 100 µM | [22] > 100 µM | [23] > 100 µM | [24] > 100 µM | [25] > 100 µM | [26] > 100 µM | [27] > 100 µM | [28] > 100 µM | [29] > 100 µM | [30] > 100 µM | [31] > 100 µM | [32] > 100 µM | [33] > 100 µM | [34] 77.1 µM | [35] > 100 µM | [36] > 100 µM | [37] > 100 µM | [38] > 100 µM | [39] > 100 µM | [40] > 100 µM | [41] > 100 µM | [42] > 100 µM | [43] > 100 µM | [44] > 100 µM | [45] 87.3 µM | [46] > 100 µM | [47] > 100 µM | [48] > 100 µM | [49] > 100 µM | [50] > 100 µM | [51] > 100 µM | [52] > 100 µM | [53] > 100 µM | [54] > 100 µM | [55] > 100 µM | [56] > 100 µM

COP(=O)(OC)C(NC=O)P(=O)(OC)OC
> 100 µM: [11]
inactive: [1] > 100 µM | [2] > 100 µM | [3] > 100 µM | [4] > 100 µM | [5] > 100 µM | [6] > 100 µM | [57] > 100 µM | [7] > 100 µM | [8] > 100 µM | [9] > 100 µM | [10] > 100 µM | [12] > 100 µM | [13] > 100 µM | [14] > 100 µM | [15] > 100 µM | [16] > 100 µM | [17] > 100 µM | [18] > 100 µM | [19] > 100 µM | [20] > 100 µM | [21] > 100 µM | [22] > 100 µM | [58] > 100 µM | [23] > 100 µM | [24] > 100 µM | [25] > 100 µM | [26] > 100 µM | [27] > 100 µM | [28] > 100 µM | [29] > 100 µM | [30] > 100 µM | [31] > 100 µM | [59] > 100 µM | [34] > 100 µM | [35] > 100 µM | [36] > 100 µM | [37] > 100 µM | [38] > 100 µM | [39] > 100 µM | [41] > 100 µM | [42] > 100 µM | [43] > 100 µM | [44] > 100 µM | [45] > 100 µM | [46] > 100 µM | [47] > 100 µM | [48] > 100 µM | [50] > 100 µM | [52] > 100 µM | [53] > 100 µM | [55] > 100 µM | [56] > 100 µM

O=C1CC(NCCCNC2CC(=O)c3c(Br)sc(Br)c32)c2c(Br)sc(Br)c21 (configuration not stated)
active: [3] 0.369 µM | [8] 0.879 µM | [9] 0.798 µM | [12] 0.238 µM | [17] 0.675 µM | [31] 0.42 µM | [53] 0.118 µM
inactive: [1] 2 µM | [2] 4.58 µM | [4] 2.48 µM | [5] 3.62 µM | [6] 1.39 µM | [57] 1.62 µM | [7] 1.82 µM | [10] 1.69 µM | [13] 2.28 µM | [14] 1.4 µM | [15] 2.54 µM | [16] 2.47 µM | [18] 1.83 µM | [19] 2.31 µM | [20] 1.8 µM | [21] 2.11 µM | [22] 2.22 µM | [23] 2.84 µM | [24] 3.78 µM | [25] 2.06 µM | [26] 1.73 µM | [27] 1.98 µM | [28] 1.36 µM | [29] 2.69 µM | [30] 1.82 µM | [59] 1.38 µM | [32] 2.48 µM | [33] 1.87 µM | [34] 1.42 µM | [35] 2.22 µM | [36] 1.79 µM | [37] 1.71 µM | [38] 1.66 µM | [39] 2.16 µM | [40] 2.21 µM | [41] 3.15 µM | [42] 3.78 µM | [43] 2.03 µM | [44] 2.45 µM | [45] 1.66 µM | [46] 1.99 µM | [47] 4.1 µM | [48] 1.99 µM | [49] 2.92 µM | [50] 2.04 µM | [51] 1.25 µM | [52] 1.57 µM | [54] 1.49 µM | [55] 2.93 µM | [56] 2.19 µM
1.71 µM: [11]
